{"source": "paper PMC6407204", "about": "“Oral administration of the cannabigerol derivative VCE-003.2 promotes subventricular zone neurogenesis and protects against mutant huntingtin-induced neurodegeneration” (Translational Neurodegeneration, 2019)", "key": {"[1]": {"molecular_target": "T1, CYP2B6 (Homo sapiens, UniProt P20813)", "T1 construct": "from tissue; host or cells: human liver microsomes", "T1 sequence (P20813 whole entry)": "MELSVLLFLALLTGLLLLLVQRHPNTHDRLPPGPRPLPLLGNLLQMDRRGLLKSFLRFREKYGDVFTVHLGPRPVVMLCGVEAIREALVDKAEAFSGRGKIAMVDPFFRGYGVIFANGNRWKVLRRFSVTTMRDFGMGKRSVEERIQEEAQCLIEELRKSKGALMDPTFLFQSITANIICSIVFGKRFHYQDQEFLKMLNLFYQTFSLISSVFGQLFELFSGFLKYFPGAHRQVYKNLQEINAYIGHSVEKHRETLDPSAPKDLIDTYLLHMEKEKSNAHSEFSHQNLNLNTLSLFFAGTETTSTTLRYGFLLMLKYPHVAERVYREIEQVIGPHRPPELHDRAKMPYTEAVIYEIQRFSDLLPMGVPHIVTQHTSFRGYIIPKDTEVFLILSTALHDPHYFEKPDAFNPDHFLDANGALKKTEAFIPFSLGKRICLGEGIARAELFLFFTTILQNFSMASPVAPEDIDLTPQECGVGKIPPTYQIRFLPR", "test": "biochemical", "assay_type": "in vitro ADME", "conditions": "Substrate = Bupropion, human liver microsomes", "description": "(§1) Supplementary file 40035_2019_148_MOESM2_ESM.pdf: Additional file 2: Cytochrome P450 Inhibition (IC50 Determination). CYP1A Inhibition. VCE-003.2 (0.1, 0.25, 1, 2.5, 10, 25 μM in DMSO; final DMSO concentration = 0.3%) was incubated with human liver microsomes (0.25 mg/mL) and NADPH (1 mM) in the presence of the probe substrate ethoxyresorufin (0.5 μM) for 5 min at 37 °C. The selective CYP1A inhibitor, alpha-naphthoflavone, was screened alongside the test compounds as a positive control. CYP2B6 Inhibition. VCE-003.2 (0.1, 0.25, 1, 2.5, 10, 25 μM in DMSO; final DMSO concentration = 0.3%) was incubated with human liver microsomes (0.1 mg/mL) and NADPH (1 mM) in the presence of the probe substrate bupropion (110 μM) for 5 min at 37 °C. The selective CYP2B6 inhibitor, ticlopidine, was screened alongside the test compounds as a positive control. CYP2C8 Inhibition. VCE-003.2 (0.1, 0.25, 1, 2.5, 10, 25 μM in DMSO; final DMSO concentration = 0.3%) was incubated with human liver microsomes (0.25 mg/mL) and NADPH (1 mM) in the presence of the probe substrate paclitaxel (7.5 μM) for 30 min at 37 °C. The selective CYP2C8 inhibitor, montelukast, was screened alongside the test compounds as a positive control. CYP2C9 Inhibition. VCE-003.2 (0.1, 0.25, 1, 2.5, 10, 25 μM in DMSO; final DMSO concentration = 0.3%) was incubated with human liver microsomes (1 mg/mL) and NADPH (1 mM) in the presence of the probe substrate tolbutamide (120 μM) for 60 min at 37 °C. The selective CYP2C9 inhibitor, sulphaphenazole, was screened alongside the test compounds as a positive control. CYP2C19 Inhibition. VCE-003.2 (0.1, 0.25, 1, 2.5, 10, 25 μM in DMSO; final DMSO concentration = 0.3%) was incubated with human liver microsomes (0.5 mg/mL) and NADPH (1 mM) in the presence of the probe substrate mephenytoin (25 μM) for 60 min at 37 °C. The selective CYP2C19 inhibitor, tranylcypromine, was screened alongside the test compounds as a positive control. CYP2D6 Inhibition. VCE-003.2 (0.1, 0.25, 1, 2.5, 10, 25 μM in DMSO; final DMSO concentration = 0.3%) was incubated with human liver microsomes (0.5 mg/mL) and NADPH (1 mM) in the presence of the probe substrate dextromethorphan (5 μM) for 5 min at 37 °C. […] CYP3A4 Inhibition. VCE-003.2 (0.1, 0.25, 1, 2.5, 10, 25 μM in DMSO; final DMSO concentration = 0.3%) was incubated with human liver microsomes (0.1 mg/mL) and NADPH (1 mM) in the presence of the probe substrate midazolam (2.5 μM) for 5 min at 37 °C. The selective CYP3A4 inhibitor, ketoconazole, was screened alongside the test compounds as a positive control. CYP3A4 Inhibition. VCE-003.2 (0.1, 0.25, 1, 2.5, 10, 25 μM in DMSO; final DMSO concentration = 0.3%) was incubated with human liver microsomes (0.5 mg/mL) and NADPH (1 mM) in the presence of the probe substrate testosterone (50 μM) for 5 min at 37 °C. The selective CYP3A4 inhibitor, ketoconazole, was screened alongside the test compounds as a positive control. For the CYP1A incubations, the reactions were terminated by methanol, and the formation of the metabolite, resorufin, was monitored by fluorescence (excitation wavelength = 535 nm, emission wavelength = 595 nm). For the CYP2B6, CYP2C9, CYP2C19, CYP2D6, and CYP3A4 incubations, the reactions were terminated by methanol. The samples were centrifuged, and the supernatants combined for the simultaneous analysis of 4-hydroxytolbutamide, 4-hydroxymephenytoin, dextrorphan, and 1-hydroxymidazolam by LC-MS/MS. Hydroxybupropion, 6α-hydroxypaclitaxel and 6ß-hydroxytestosterone were analyzed separately by LC-MS/MS. A decrease in the formation of the metabolites compared to vehicle control was used to calculate IC50 values. (PDF 323 kb)"}, "[2]": {"molecular_target": "T2, CYP2C19 (Homo sapiens, UniProt P33261)", "T2 construct": "from tissue; host or cells: human liver microsomes", "T2 sequence (P33261 whole entry)": "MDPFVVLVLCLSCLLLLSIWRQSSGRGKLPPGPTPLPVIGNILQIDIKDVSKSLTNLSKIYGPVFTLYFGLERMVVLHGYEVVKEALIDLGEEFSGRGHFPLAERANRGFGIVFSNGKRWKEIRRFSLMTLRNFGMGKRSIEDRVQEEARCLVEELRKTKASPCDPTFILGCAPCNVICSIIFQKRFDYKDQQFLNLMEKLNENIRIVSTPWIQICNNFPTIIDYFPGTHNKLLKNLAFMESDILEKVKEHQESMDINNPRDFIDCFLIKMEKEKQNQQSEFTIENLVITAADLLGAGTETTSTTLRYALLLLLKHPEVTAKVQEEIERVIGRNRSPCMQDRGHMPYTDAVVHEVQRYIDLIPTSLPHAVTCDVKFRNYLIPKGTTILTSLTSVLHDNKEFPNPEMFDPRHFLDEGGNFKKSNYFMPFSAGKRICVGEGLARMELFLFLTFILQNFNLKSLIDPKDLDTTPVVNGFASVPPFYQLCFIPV", "test": "biochemical", "assay_type": "in vitro ADME", "conditions": "Substrate = Mephenytoin, human liver microsomes", "description": "as §1"}, "[3]": {"molecular_target": "T3, CYP2C8 (Homo sapiens, UniProt P10632)", "T3 construct": "from tissue; host or cells: human liver microsomes", "T3 sequence (P10632 whole entry)": "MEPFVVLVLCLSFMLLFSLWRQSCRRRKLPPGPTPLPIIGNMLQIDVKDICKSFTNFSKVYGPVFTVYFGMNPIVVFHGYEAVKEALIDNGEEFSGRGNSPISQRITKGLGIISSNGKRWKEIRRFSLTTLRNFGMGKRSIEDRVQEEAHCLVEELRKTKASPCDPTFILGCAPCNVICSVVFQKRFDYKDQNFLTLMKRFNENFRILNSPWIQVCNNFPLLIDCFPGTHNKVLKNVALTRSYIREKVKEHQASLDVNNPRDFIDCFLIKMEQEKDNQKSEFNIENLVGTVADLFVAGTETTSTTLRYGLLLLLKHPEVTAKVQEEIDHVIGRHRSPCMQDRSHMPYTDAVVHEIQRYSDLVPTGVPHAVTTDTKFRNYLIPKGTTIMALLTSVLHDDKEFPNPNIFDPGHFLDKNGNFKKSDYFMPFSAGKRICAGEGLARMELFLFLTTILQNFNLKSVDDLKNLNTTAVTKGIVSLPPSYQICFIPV", "test": "biochemical", "assay_type": "in vitro ADME", "conditions": "Substrate = Paclitaxel, human liver microsomes", "description": "as §1"}, "[4]": {"molecular_target": "T4, CYP2C9 (Homo sapiens, UniProt P11712)", "T4 construct": "from tissue; host or cells: human liver microsomes", "T4 sequence (P11712 whole entry)": "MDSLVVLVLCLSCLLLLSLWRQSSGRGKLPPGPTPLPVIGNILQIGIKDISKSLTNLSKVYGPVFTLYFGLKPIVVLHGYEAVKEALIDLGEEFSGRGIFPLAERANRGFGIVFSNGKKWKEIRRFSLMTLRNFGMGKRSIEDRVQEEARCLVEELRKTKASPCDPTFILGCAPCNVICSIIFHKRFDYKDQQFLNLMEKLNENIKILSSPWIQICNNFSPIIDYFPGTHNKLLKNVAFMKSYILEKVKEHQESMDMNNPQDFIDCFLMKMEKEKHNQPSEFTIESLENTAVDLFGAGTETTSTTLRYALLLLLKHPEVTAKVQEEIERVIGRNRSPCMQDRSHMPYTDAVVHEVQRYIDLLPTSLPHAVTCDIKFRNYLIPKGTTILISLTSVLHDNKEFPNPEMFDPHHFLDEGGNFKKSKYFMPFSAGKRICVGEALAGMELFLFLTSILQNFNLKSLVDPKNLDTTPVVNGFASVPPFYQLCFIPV", "test": "biochemical", "assay_type": "in vitro ADME", "conditions": "Substrate = Tolbutamide, human liver microsomes", "description": "as §1"}, "[5]": {"molecular_target": "T5, CYP2D6 (Homo sapiens, UniProt P10635)", "T5 construct": "from tissue; host or cells: human liver microsomes", "T5 sequence (P10635 whole entry)": "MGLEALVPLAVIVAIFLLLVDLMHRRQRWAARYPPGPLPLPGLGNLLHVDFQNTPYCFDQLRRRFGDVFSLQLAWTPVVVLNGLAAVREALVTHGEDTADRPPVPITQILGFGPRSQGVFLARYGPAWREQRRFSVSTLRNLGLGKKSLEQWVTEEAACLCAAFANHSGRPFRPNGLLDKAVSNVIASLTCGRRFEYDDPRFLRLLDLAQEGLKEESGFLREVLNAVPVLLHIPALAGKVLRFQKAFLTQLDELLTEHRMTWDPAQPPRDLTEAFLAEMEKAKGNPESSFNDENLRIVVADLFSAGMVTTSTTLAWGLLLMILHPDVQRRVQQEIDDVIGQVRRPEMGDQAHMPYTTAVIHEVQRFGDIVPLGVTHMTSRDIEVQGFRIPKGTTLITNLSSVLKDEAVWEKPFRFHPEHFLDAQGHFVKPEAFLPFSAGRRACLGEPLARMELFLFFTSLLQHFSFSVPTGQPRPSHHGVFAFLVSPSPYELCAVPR", "test": "biochemical", "assay_type": "in vitro ADME", "conditions": "Substrate = Dextromethorphan, human liver microsomes", "description": "as §1"}, "[6]": {"molecular_target": "T6, CYP3A4 (Homo sapiens, UniProt P08684)", "T6 construct": "from tissue; host or cells: human liver microsomes", "T6 sequence (P08684 whole entry)": "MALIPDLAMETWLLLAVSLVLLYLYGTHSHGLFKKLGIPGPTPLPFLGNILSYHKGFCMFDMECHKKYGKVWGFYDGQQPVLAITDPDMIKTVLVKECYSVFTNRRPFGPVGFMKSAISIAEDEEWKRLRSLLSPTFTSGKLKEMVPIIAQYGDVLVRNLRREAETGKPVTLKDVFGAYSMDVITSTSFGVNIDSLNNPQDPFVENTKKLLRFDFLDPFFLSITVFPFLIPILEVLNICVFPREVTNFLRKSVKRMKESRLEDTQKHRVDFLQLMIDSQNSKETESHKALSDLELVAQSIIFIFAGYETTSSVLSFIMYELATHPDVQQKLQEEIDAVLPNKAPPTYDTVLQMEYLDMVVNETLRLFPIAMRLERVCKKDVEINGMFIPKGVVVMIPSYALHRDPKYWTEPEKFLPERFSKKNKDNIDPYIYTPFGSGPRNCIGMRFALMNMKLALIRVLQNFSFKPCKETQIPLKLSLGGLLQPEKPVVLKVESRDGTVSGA", "test": "biochemical", "assay_type": "in vitro ADME", "conditions": "human liver microsomes", "description": "as §1"}, "[7]": {"molecular_target": "hERG channel (Homo sapiens, UniProt Q12809)", "sequence (Q12809 whole entry)": "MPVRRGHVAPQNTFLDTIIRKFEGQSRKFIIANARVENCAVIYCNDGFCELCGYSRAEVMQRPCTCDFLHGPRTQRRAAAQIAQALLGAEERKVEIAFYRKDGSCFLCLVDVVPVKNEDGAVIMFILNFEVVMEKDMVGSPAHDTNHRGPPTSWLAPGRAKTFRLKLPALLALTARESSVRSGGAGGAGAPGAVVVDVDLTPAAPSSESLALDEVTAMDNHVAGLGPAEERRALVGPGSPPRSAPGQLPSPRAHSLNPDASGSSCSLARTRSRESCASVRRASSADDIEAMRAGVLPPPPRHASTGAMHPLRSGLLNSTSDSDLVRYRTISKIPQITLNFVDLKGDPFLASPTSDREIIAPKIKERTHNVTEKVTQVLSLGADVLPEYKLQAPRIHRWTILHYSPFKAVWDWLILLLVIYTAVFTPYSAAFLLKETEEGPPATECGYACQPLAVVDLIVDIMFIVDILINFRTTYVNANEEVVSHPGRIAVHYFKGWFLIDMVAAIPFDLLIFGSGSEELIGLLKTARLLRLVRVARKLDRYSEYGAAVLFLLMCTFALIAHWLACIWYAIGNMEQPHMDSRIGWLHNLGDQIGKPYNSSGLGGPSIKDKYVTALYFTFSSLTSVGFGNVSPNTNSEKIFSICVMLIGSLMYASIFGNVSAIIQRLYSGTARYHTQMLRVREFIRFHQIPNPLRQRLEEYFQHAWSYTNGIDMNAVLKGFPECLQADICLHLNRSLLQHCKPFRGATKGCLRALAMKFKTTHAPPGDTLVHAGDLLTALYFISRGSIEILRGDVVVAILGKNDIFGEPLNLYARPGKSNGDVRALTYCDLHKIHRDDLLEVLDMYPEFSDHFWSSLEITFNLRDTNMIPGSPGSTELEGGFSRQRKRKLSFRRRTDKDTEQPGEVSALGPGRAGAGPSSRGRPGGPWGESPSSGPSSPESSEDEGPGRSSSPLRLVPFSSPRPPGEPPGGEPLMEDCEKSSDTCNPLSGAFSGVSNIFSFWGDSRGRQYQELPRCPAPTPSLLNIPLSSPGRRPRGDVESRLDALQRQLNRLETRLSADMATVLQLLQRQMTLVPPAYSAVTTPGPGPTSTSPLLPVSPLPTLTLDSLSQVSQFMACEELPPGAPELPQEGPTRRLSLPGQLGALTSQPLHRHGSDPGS"}, "[8]": {"test_system": "neural progenitor", "set-up": "method as in PMID 27430371", "conditions": "cited from earlier work"}, "[9]": {"test_system": "osteoblast differentiation", "conditions": "compared with full PPARγ-agonists; cited from earlier work"}, "[10]": {"test_system": "adipogenic", "conditions": "compared with full PPARγ-agonists; cited from earlier work"}}}
{"smiles": "CCCCCC1=C(NCC)C(=O)C(CC=C(C)CCC=C(C)C)=C(O)C1=O", "note": "[VCE-003.2, 2-(3,7-dimethyl-octa-2,6-dienyl)-6-ethylamino-3-hydroxy-5-pentyl-(1,4) benzoquinone]", "values": [{"measurement": "IC50", "setting": "[1]", "result": "> 25", "unit": "µM"}, {"measurement": "IC50", "setting": "[2]", "result": "> 25", "unit": "µM"}, {"measurement": "IC50", "setting": "[3]", "result": "13 ± 2.4", "unit": "µM"}, {"measurement": "IC50", "setting": "[4]", "result": "15.7 ± 1.96", "unit": "µM"}, {"measurement": "IC50", "setting": "[5]", "result": "> 25", "unit": "µM"}, {"measurement": "IC50", "setting": "[6]; Substrate = Midazolam", "result": "> 25", "unit": "µM"}, {"measurement": "IC50", "setting": "[6]; Substrate = Testosterone", "result": "> 25", "unit": "µM"}, {"measurement": "hERG channel activity inhibition (in words)", "setting": "[7]", "result": "did not inhibit hERG channel activity"}, {"measurement": "neural progenitor survival", "setting": "[8]", "result": "increases neural progenitor survival"}, {"measurement": "interference with osteoblast differentiation", "setting": "[9]", "result": "does not interfere with osteoblast differentiation"}, {"measurement": "adipogenic effect", "setting": "[10]", "result": "less adipogenic"}]}
